Test system: Dkk1-LRP5-TCF-Luciferase
Experiment: Functional Dkk1-LRP5-TCF-Luciferase Assay in U2OS Cells
Conditions: for fold induction at 2 µM / EC50 / fold induction at 20 µM: Homo sapiens, U2OS; for fold induction at 2 µM: read-out: B = TCF ACTIVITY/DMSO CONTROL Fold induction @ 2.0 uM, 2.0 uM compound; for fold induction at 20 µM: read-out: C = TCF ACTIVITY/DMSO CONTROL Fold induction @ 20.0 uM, 20.0 uM compound; for A = MAX FOLD Induction/DMSO CONTROL: maximum fold induction over DMSO control

| EC50 [µM] | A = MAX FOLD Induction/DMSO CONTROL [fold] | C = TCF ACTIVITY/DMSO CONTROL Fold induction @ 20.0 uM (20.0 uM compound, 20 µM) [fold] | SMILES | fold induction at 2 µM | fold induction at 20 µM |
| --- | --- | --- | --- | --- | --- |
| – | – | – | CC(C)(C)Nc1nccc(-c2ccc3ccccc3c2)n1 [N-(tert-butyl)-4-(2-naphthyl)pyrimidin-2-amine] | 1.75 | – |
| 18.9 | 3.695 | – | CC(=O)N[C@H]1CC[C@H](Nc2nccc(-c3ccc4ccccc4c3)n2)CC1 [N-(trans-4-{[4-(2-naphthyl)pyrimidin-2-yl]amino}cyclohexyl)acetamide] | 1.9 | 3.2 |
| 3.3 | 2.940 | – | CS(=O)(=O)N[C@H]1CC[C@H](Nc2nccc(-c3ccc4ccccc4c3)n2)CC1 [N-(trans-4-{[4-(2-naphthyl)pyrimidin-2-yl]amino}cyclohexyl)methanesulfonamide] | 1.79 | 2.38 |
| – | – | – | CC(=O)NCC1CN(c2nccc(-c3ccc4ccccc4c3)n2)C1 [N-({1-[4-(2-naphthyl)pyrimidin-2-yl]azetidin-3-yl}methyl)acetamide] | 0.69 | 1.76 |
| – | – | – | CS(=O)(=O)NCC1CN(c2nccc(-c3ccc4ccccc4c3)n2)C1 [N-({1-[4-(2-naphthyl)pyrimidin-2-yl]azetidin-3-yl}methyl)methanesulfonamide] | 1.1 | 1.38 |
| – | – | – | NC(=O)NCC1CN(c2nccc(-c3ccc4ccccc4c3)n2)C1 [N-({1-[4-(2-naphthyl)pyrimidin-2-yl]azetidin-3-yl}methyl)urea] | 1.46 | 1.64 |
| 1.9 | 2.273 | 2.500 | CC(=O)NCC1CCN(c2nccc(-c3ccc4ccccc4c3)n2)CC1 [N-({1-[4-(2-naphthyl)pyrimidin-2-yl]piperidin-4-yl}methyl)acetamide] | 1.63 | 2.71 |
| – | – | – | O=C(NCC1CCN(c2nccc(-c3ccc4ccccc4c3)n2)CC1)c1ccccc1 [N-({1-[4-(2-naphthyl)pyrimidin-2-yl]piperidin-4-yl}methyl)benzamide] | 1.69 | – |
| 3.3 | 4.200 | – | CCNCC1CCN(c2nccc(-c3ccc4ccccc4c3)n2)CC1 [N-({1-[4-(2-naphthyl)pyrimidin-2-yl]piperidin-4-yl}methyl)ethanamine] | 1.33 | 0.01 |
| – | – | – | N=C(N)NCC1CCN(c2nccc(-c3ccc4ccccc4c3)n2)CC1 [N-({1-[4-(2-naphthyl)pyrimidin-2-yl]piperidin-4-yl}methyl)guanidine] | 1.27 | 0.02 |
| – | – | – | CS(=O)(=O)NCC1CCN(c2nccc(-c3ccc4ccccc4c3)n2)CC1 [N-({1-[4-(2-naphthyl)pyrimidin-2-yl]piperidin-4-yl}methyl)methanesulfonamide] | 1.12 | 0.48 |
| – | – | – | c1cnc(NCC2CCN(c3nccc(-c4ccc5ccccc5c4)n3)CC2)nc1 [N-({1-[4-(2-naphthyl)pyrimidin-2-yl]piperidin-4-yl}methyl)pyrimidin-2-amine] | 1.28 | 1.48 |
| – | – | – | O=C(NCC1CCN(c2nccc(-c3ccc4ccccc4c3)n2)CC1)N1CCCC1 [N-({1-[4-(2-naphthyl)pyrimidin-2-yl]piperidin-4-yl}methyl)pyrrolidine-1-carboxamide] | 0.91 | 1.13 |
| – | – | – | NC(=O)NCC1CCN(c2nccc(-c3ccc4ccccc4c3)n2)CC1 [N-({1-[4-(2-naphthyl)pyrimidin-2-yl]piperidin-4-yl}methyl)urea] | 1.29 | 1.18 |
| – | – | – | CC(=O)NCC1CCN(c2nccc(-c3ccc4ccccc4c3)n2)C1 (stereo not drawn) [N-({1-[4-(2-naphthyl)pyrimidin-2-yl]pyrrolidin-3-yl}methyl)acetamide] | 0.95 | 1.5 |
| – | – | – | O=C(NCC1CCN(c2nccc(-c3ccc4ccccc4c3)n2)C1)c1ccccc1 (stereo not drawn) [N-({1-[4-(2-naphthyl)pyrimidin-2-yl]pyrrolidin-3-yl}methyl)benzamide] | 1.06 | 1.03 |

Source: US20090054392A1, “NAPHTHYLPYRIMIDINE, NAPHTHYLPYRAZINE AND NAPHTHYLPYRIDAZINE ANALOGS AND THEIR USE AS AGONISTS OF THE WNT-BETA-CATENIN CELLULAR MESSAGING SYSTEM” (Wyeth, priority 2007, published 2009)
